The target in data set [1] is T1, human GnRHR1 (Homo sapiens, UniProt P30968).
T1 construct: expressed in transfected cells
T1 sequence (P30968 1-328): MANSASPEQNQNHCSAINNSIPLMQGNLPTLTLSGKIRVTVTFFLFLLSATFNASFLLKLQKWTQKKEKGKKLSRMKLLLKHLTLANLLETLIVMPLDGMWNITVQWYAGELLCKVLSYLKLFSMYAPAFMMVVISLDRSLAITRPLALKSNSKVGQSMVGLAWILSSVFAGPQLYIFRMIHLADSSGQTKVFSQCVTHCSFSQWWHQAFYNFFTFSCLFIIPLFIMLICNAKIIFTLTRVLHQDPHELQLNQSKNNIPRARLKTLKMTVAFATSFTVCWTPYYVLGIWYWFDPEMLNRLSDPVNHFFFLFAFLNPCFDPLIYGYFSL
Nature of the data set: Inhibitory effect for the change of calcium levels in GnRH-stimulated cells (hGnRHR1#1 HEK293 cells). Type of data set: cell-based. The note with it: HEK293 cells stably expressing human GnRHR1; 10 nM GnRH added; FLIPR Calcium Assay Kit; read-out: IC50 (drug concentration at which 50% GnRH-stimulated intracellular calcium flux was inhibited). The source says:
1) Cloning and Construction of the Vector Expressing Human GnRH Receptor1 (GnRHR1)
Using cDNA derived from human pituitary (BECTON DICKINSON) as a template, the DNA fragment coding 45 to 1115 by of human GnRHR1 (Accession No. L03380), which was reported by Kakar et al., was amplified by PCR method and inserted into the multi-cloning site of pcDNA3.1(+) (Invitrogen). The DNA sequence inserted was perfectly matched to the previously reported sequence.
2) Establishment of Cell Line Stably Expressing Human GnRH Receptor1 HEK293 Cells
The expression vector of human GnRHR1 gene, was digested by XhoI into a linear DNA. The linear DNA was transfected into HEK293 cells by means of lipofection (Lipofectamine2000: Invitrogen). Neomycin resistant cell lines were selected by culture in the medium containing G418 (Invitrogen) at 1 mg/mL, and then the change of calcium levels in GnRH-stimulated cells was measured by the method described below.
3) Assay of Inhibitory Effect for the Change of Calcium Levels in GnRH-Stimulated Cells
Antagonizing effect of compounds for human GnRHR1 was evaluated by depression of calcium levels in GnRH-stimulated cells. hGnRHR1#1 cells were seeded into a 96-well culture plate at a density of 1.5×10^5 cells/well and cultured for a day. […] Then, intracellular calcium levels were determined under the following condition by using FLEX STATION (Molecular Devices). […]
For orientation: Calcium assays in cells follow changes in intracellular calcium, usually with a dye or a luminescent sensor.

The nature of data set [2]: Assay for oral absorbability: plasma drug concentration after oral administration. The following applies: overnight fasted male SD rats, 3 mg/kg. Type of data set: in vivo. As to the method:
Assay for Oral Absorbability
1) Preparation of the Samples for Measurement of the Drug Concentration After Oral Administration
As experimental animal, overnight fasted SD rats (Charles River, male, 7 weeks of age, 170-210 g) were used. Three mg of a test compound was dissolved by adding 0.2 mL of N,N-dimethylacetoamide, 9.794 mL of 0.5% aqueous methylcellulose solution and 0.006 mL of 2N NaOH, and then 0.3 mg/mL solution was prepared. The body weights of rats were measured, and the solution of the test compound was administered orally at the dose of 10 mL/kg (3 mg/kg). The oral administration was performed with gastric tube for rat and 2.5 mL syringe. The sampling times for collection of blood were 15, 30, 60, 120, 240 and 360 minutes after the oral administration. The blood was centrifuged, and the plasma was used as the sample for measurement of the drug concentration in blood.
2) Measurement of the Drug Concentration
To 0.025 mL of the plasma obtained in 1) described above, 0.1 mL of an adequate internal standard material was added according to the usual method, and then deproteinization was performed by adding 0.875 mL of acetonitrile. After centrifugation, 0.005 mL of the supernatant was injected into LC-MS/MS. The drug concentration in plasma was measured by LC-MS/MS method under the conditions as follows. […]

Structures are written as SMILES.

`COC(=O)N(C)CCOc1ccc(F)c(F)c1COc1ccc(F)c(-n2c(=O)[nH]c3csc(C(=O)O)c3c2=O)c1` [Example 8]: in data set [1], the IC50 is 91 nM. Also, the C360 (plasma drug concentration at 360 minutes after administration) in data set [2] (360 minutes) was determined as 490 ng/mL. Moreover, the Cmax in data set [2] (rat, read-out: Cmax (maximum plasma drug concentration)) turned out to be 2380 ng/mL.
